One may read the inhibition as how much of the control response was suppressed. A high value points to a response far below the control. Usually IC50 stands for the concentration needed to halve the response being measured. The low end stands for higher potency, the high end for lower potency. What is called IC90 is the point of the concentration-response curve where the effect stands at 90%. Low values mean an effect from little substance, high ones a need for much substance.

13 compounds from US6569878B1, “Substituted 4-amino-thiazol-2-yl compounds as cyclin-dependent kinase inhibitors” (Agouron Pharmaceuticals Inc., priority 1997, dated 2003) can be followed below.

One assay has as its target T1, CDK2/cyclin A (Homo sapiens, UniProt P24941).
T1 construct: made in house; host or cells: CDK2: insect cells (baculovirus); cyclin A: E. coli, then limited proteolysis
The assay is described as follows: Inhibition of CDK2/cyclin A retinoblastoma kinase activity. Type of assay: biochemical. The following applies: read-out: Ki CDK 2/A. Put shortly: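 Baculovirus-expressed CDK2 with excess proteolyzed cyclin A (or purified complex), 150 nM or 5 nM, phosphorylating an Rb fragment with 25 μM [32/33P]ATP, pH 7.4, 30° C, 20 min. Filter-captured radioactivity by phosphorimager; apparent Ki from fits to competitive or tight-binding competitive inhibition using measured ATP Km.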

The target in assay [1] is T2, human CDK1 (cdc2) and cyclin B (Homo sapiens, UniProt P06493).
T2 construct: purchased New England Biolabs (Beverly Mass.)
T2 sequence (P06493 whole entry): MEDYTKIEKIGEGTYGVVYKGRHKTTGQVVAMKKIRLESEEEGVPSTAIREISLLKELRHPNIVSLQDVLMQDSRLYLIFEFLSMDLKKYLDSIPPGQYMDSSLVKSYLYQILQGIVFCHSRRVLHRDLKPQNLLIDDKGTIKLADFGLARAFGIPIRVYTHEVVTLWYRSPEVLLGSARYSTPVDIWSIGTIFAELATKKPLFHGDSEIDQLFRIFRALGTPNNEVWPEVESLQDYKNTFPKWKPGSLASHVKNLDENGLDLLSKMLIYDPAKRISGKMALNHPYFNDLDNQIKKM
T2 sequence (P14635 whole entry partner): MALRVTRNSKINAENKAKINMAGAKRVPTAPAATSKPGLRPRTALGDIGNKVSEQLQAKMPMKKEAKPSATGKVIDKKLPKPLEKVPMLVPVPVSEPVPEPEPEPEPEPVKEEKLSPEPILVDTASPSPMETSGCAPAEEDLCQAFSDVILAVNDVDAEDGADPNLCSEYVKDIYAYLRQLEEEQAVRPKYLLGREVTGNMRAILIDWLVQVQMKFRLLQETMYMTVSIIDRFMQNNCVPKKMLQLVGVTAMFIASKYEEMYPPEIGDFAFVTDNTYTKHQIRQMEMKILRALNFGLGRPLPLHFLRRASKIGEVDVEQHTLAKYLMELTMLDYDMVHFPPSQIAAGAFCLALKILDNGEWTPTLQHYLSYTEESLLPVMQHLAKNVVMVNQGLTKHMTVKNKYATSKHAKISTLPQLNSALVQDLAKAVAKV
As to the kind of experiment: Inhibition of CDK1(cdc2)/cyclin B histone H1 kinase activity. It is filed as biochemical. The following applies: read-out: Ki CDK 1/B. An outline of the steps:
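CDK1/cyclin B (commercial, or CDK1/GST-cyclin B1 from co-infected insect cells) phosphorylated histone H1 with 25 μM [32/33P]ATP at pH 7.4, 30° C for 20 min, 2% DMSO. Product captured on phosphocellulose and read by phosphorimager; apparent Ki from competitive or tight-binding fits, with Km for ATP determined.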

Another assay has as its system SW-480. As to the kind of experiment: Inhibition of cell growth, MTT assay, SW-480. Type of assay: cell-based. As to conditions: Homo sapiens, SW480, SW-480, MTT assay. How it is done: Inhibition of cell growth was measured using the tetrazolium salt assay, which is based on the ability of viable cells to reduce 3-(4,5-dimethylthiazol-2-yl)-2,5-[2H]-diphenyltetrazolium bromide (MTT) to formazan (Mossman, Journal of Immunological Methods, vol. 65 (1983), pp. 55-58). The water-insoluble purple formazan product was then detected spectrophotometrically. Various cell lines (HCT-116, Saos-2, U2-OS, SW480, COLO-205, RXF-393, M14, MDA-MB-468, and MCF7) were grown in 96-well plates. Cells were plated in the appropriate medium at a volume of 135 μl/well in either McCoy's 5A Medium (for Saos-2, U2-OS, SW480, and HCT-116 cells), RPMI (for COLO-205, RXF-393, M14 cells), or Minimum Essential Medium Eagle (for MDA-MB-468 and MCF7 cells). Plates were incubated for four hours before addition of inhibitor compounds. Different concentrations of inhibitor compounds were added in 0.5% (v/v) dimethylsulfoxide (15 μL/well), and cells were incubated at 37° C. (5% CO2) for four to six days (depending on cell type). At the end of the incubation, MTT was added to a final concentration of 0.2 mg/mL, and cells were incubated for 4 hours more at 37° C. After centrifugation of the plates and removal of medium, the absorbance of the formazan (solubilized in dimethylsulfoxide) was measured at 540 nm. […] All results were compared to control cells treated only with 0.5% (v/v) dimethylsulfoxide.
A general note: Tetrazolium dyes change colour on reduction, which living cells bring about.

Assay [2] deals with T3, complex of human CDK4 and cyclin D3 (Homo sapiens, UniProt P11802).
T3 construct: made in house; host or cells: insect cells, co-infected with baculovirus
T3 sequence (P11802 whole entry): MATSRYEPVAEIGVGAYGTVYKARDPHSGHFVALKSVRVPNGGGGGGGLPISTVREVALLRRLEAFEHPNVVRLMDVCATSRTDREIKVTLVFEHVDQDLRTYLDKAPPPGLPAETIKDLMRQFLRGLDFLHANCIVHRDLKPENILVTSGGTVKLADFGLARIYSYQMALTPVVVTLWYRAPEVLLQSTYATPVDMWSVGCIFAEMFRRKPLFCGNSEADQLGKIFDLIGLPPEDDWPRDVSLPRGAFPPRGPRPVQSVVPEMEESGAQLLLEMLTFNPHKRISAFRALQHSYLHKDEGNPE
T3 sequence (P30281 whole entry partner): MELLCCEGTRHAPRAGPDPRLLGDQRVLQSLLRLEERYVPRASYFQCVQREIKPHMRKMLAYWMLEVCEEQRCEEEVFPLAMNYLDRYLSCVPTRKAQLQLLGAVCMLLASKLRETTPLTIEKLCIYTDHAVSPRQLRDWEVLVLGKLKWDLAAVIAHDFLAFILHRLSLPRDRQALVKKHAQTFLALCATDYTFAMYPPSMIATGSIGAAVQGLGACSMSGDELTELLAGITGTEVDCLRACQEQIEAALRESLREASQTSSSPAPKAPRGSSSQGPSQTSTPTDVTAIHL
The assay is described as follows: Inhibition of CDK4/cyclin D retinoblastoma kinase activity (D-type cyclin is D3). Type of assay: biochemical. The following applies: superscript a: D-type cyclin is D3; apparent Ki; read-out: Ki CDK 4/D. An outline of the steps: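 Apparent Ki derived by fitting background-corrected activity to competitive (or, for tight binders, competitive tight-binding) equations with measured ATP Km. Rb phosphorylation by radiolabelled ATP was measured at 30°C, 20 min standard or 60 min at 5 nM complex for tight binders, via nitrocellulose capture and phosphorimager.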

The subject of a further assay is HCT116. The assay is described as follows: Inhibition of cell growth, MTT assay, HCT116. Type of assay: cell-based, human. The following applies: Homo sapiens; for inhibition at 30 µM: HCT-116, at 30 μM; for IC50 / IC90: HCT-116. Put shortly:
(§1)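 Cells rested 4 h after plating, then exposed to graded compound concentrations in 0.5% (v/v) DMSO for four to six days (cell-type dependent) at 37° C, 5% CO2. Viability was read by MTT (0.2 mg/mL final, 4 h at 37° C), with DMSO-solubilized formazan measured at 540 nm.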

A further assay deals with U2-OS. As to the kind of experiment: Inhibition of cell growth, MTT assay, U2-OS. It is filed as cell-based. The following applies: Homo sapiens, U2OS. Put shortly:
as §1

The subject of the next assay is MCF-7. As to the kind of experiment: Inhibition of cell growth, MTT assay, MCF-7. Type of assay: cell-based. The following applies: Homo sapiens, MCF7; MCF-7, MTT assay. How it is done: (§2) The water-insoluble purple formazan product was then detected spectrophotometrically. […] Plates were incubated for four hours before addition of inhibitor compounds. Different concentrations of inhibitor compounds were added in 0.5% (v/v) dimethylsulfoxide (15 μL/well), and cells were incubated at 37° C. (5% CO2) for four to six days (depending on cell type). At the end of the incubation, MTT was added to a final concentration of 0.2 mg/mL, and cells were incubated for 4 hours more at 37° C. After centrifugation of the plates and removal of medium, the absorbance of the formazan (solubilized in dimethylsulfoxide) was measured at 540 nm.

Another assay deals with Saos-2. As to the kind of experiment: Inhibition of cell growth, MTT assay, Saos-2. The following applies: Homo sapiens; Saos-2, MTT assay. It is filed as cell-based. Put shortly:
as §1

Another assay concerns MDA-MB-468. The assay is described as follows: Inhibition of cell growth, MTT assay, MDA-MB-468. Type of assay: cell-based. The following applies: Homo sapiens; MDA-MB-468, MTT assay. How it is done:
as §2

Turning to `Nc1nc(Nc2cccnc2)sc1C(=O)c1ccccc1` [A(3), [4-Amino-2-(pyridin-3-ylamino)-thiazol-5-yl]-phenyl-methanone], the Ki at CDK2/cyclin A was 6100 nM; in assay [1], 3500 nM; in assay [2], 2000 nM. Also, the inhibition at 30 µM with SW-480 came to 15%; with HCT116, 41%.
In the case of `Nc1nc(Nc2ccccc2)sc1C(=O)c1ccccn1` [A(4), (4-Amino-2-phenylamino-thiazol-5-yl)-pyridin-2-yl-methanone], the Ki was found to be 3100 nM at CDK2/cyclin A, 2700 nM in assay [1] and 2000 nM in [2]. Besides, in the assay on SW-480 (at 10 μM), 10 µM produced 0% inhibition. Further, the inhibition at 30 µM with SW-480 worked out at 66%; in the assay on HCT116, 29%.
Take `CCOC(=O)c1ccc(Nc2nc(N)c(C(=O)c3ccccc3[N+](=O)[O-])s2)cc1` [A(5), Ethyl 4-[4-Amino-5-(2-nitro-benzoyl)-thiazol-2-ylamino]-benzoate]: the values for the Ki (on CDK2/cyclin A; in assay [1]; in assay [2]) were 690 nM, 163 nM and 97 nM, respectively. Also, the IC50 in the assay on SW-480 came to 1700 nM; in the assay with HCT116 it was 26000 nM. For the same compound, the IC90 in the assay on SW-480 was found to be 3000 nM. The compound further gave an inhibition at 30 µM in the assay on HCT116 of 85%.
As for `Cc1nc2ccc(Nc3nc(N)c(C(=O)c4ccccc4[N+](=O)[O-])s3)cc2[nH]1` [A(6), [4-Amino-2-(2-methyl-1H-benzoimidazol-6-ylamino)-thiazol-5-yl]-(2-nitro-phenyl)-methanone], the Ki at CDK2/cyclin A came out at 292 nM; in [1], 52 nM; in assay [2], 150 nM. Moreover, the IC50 in the assay on SW-480 amounted to 5000 nM; with HCT116, 20000 nM. In addition, the values for the IC90 with SW-480 and in the assay on HCT116 were 15000 nM and 30000 nM, respectively.
For the compound `Nc1nc(Nc2ccc3nc[nH]c3c2)sc1C(=O)c1ccccc1[N+](=O)[O-]` [A(9), [4-Amino-2-(1H-benzoimidazol-6-yl-amino)-thiazol-5-yl]-(2-nitro-phenyl)-methanone], the Ki on CDK2/cyclin A stood at 230 nM; in [1], 53 nM; in [2], 100 nM. Also, the IC50 in the assay with SW-480 was determined as 4000 nM; in the assay with HCT116 it was 20000 nM. Besides, the IC90 in the assay on SW-480 amounted to 10000 nM; with HCT116, 30000 nM.
For `CN(C)c1ccc(Nc2nc(N)c(C(=O)c3ccccc3[N+](=O)[O-])s2)cc1` [C(4), [4-Amino-2-(4-dimethylamino-phenylamino)-thiazol-5-yl]-(2-nitro-phenyl)-methanone], the figures for the Ki (at CDK2/cyclin A; in assay [1]; in assay [2]) were 810 nM, 90 nM and 95 nM, respectively. The results for the IC50 with SW-480 and in the assay on HCT116 were 400 nM and 700 nM, respectively. In addition, the concentration for an effect of 90% (IC90) is 3000 nM in the assay on SW-480 and 30000 nM in the assay with HCT116.
On to `Nc1nc(NCCc2ccccc2)sc1C(=O)c1ccccc1[N+](=O)[O-]` [C(5), (4-Amino-2-phenethylamino-thiazol-5-yl)-(2-nitro-phenyl)-methanone], for which the values for the Ki (at CDK2/cyclin A; in assay [1]; in [2]) were 780 nM, 293 nM and 140 nM, respectively. The IC50 was determined as 3000 nM with SW-480 and 6000 nM in the assay on HCT116. For the same compound, the figures for the IC90 in the assay on SW-480 and in the assay on HCT116 were 9000 nM and 25000 nM, respectively.
For `CN(C)CCN(C)c1ccc(Nc2nc(N)c(C(=O)c3c(F)cccc3F)s2)cc1` [C(110), (4-Amino-2-{4-[(2-dimethylamino-ethyl)-methyl-amino]-phenylamino}-thiazol-5-yl)-(2,6-difluoro-phenyl)-methanone], the Ki on CDK2/cyclin A is 260 nM; in assay [1], 104 nM; in [2], 14 nM. In addition, the IC50 was 700 nM in the assay with U2-OS; 400 nM in the assay with MCF-7; 890 nM in the assay on Saos-2; 440 nM in the assay on MDA-MB-468; 640 nM in the assay with HCT116. For the same compound, the IC90 with U2-OS turned out to be 1600 nM; in the assay with MCF-7, 1700 nM; with Saos-2, 1800 nM; in the assay with MDA-MB-468 it was 750 nM; in the assay on HCT116, 1700 nM.
Consider `Nc1nc(Nc2ccc(C(=O)O)cc2)sc1C(=O)c1ccccc1[N+](=O)[O-]` [E(1), 4-[4-Amino-5-(2-nitro-benzoyl)-thiazol-2-ylamino]-benzoic Acid], for which the Ki at CDK2/cyclin A stood at 320 nM; in [1], 30 nM; in [2], 420 nM. For the same compound, the inhibition at 30 µM with SW-480 came to 23%; with HCT116 it was 17%. Besides, the inhibition at 10 µM in the assay with HCT116 (HCT-116, at 10 μM) was 17%.
Regarding `Nc1nc(Nc2ccc(N3CCNCC3)cc2)sc1C(=O)c1c(Cl)cccc1Cl` [H(3), [4-Amino-2-(4-piperazin-1-yl-phenylamino)-thiazol-5-yl]-(2,6-dichloro-phenyl)-methanone], the Ki came to 405 nM at CDK2/cyclin A, 472 nM in assay [1] and 2.4 nM in assay [2]. Further, the IC50 was 3500 nM in the assay with U2-OS, 1800 nM in the assay on Saos-2 and 880 nM in the assay on HCT116. Further, the values for the IC90 in the assay on U2-OS, in the assay on Saos-2 and in the assay with HCT116 were 5800 nM, 3000 nM and 2400 nM, respectively.
Turning to `CN(C)c1ccc(Nc2nc(N)c(C(=O)c3ccccn3)s2)cc1` [I(19)], the Ki on CDK2/cyclin A was 4800 nM; in [2] it was 1600 nM. This compound registered an IC50 in the assay on SW-480 of 22000 nM. Further, the inhibition at 30 µM with SW-480 was found to be 58%; in the assay on HCT116 it was 16%.
On to `Nc1nc(Nc2ccc(N3CCNCC3)cc2)sc1C(=O)c1c(Cl)cc(Cl)cc1Cl` [J(1), [4-Amino-2-(4-piperazin-1-yl-phenylamino)-thiazol-5-yl]-(2,4,6-trichloro-phenyl)-methanone], for which the Ki is 452 nM at CDK2/cyclin A, 732 nM in [1] and 2.3 nM in [2]. In addition, the IC50 in the assay on U2-OS stood at 3500 nM; in the assay with Saos-2 it was 1000 nM; in the assay on HCT116, 1300 nM. The IC90 with U2-OS worked out at 5900 nM; with Saos-2 it was 5900 nM; with HCT116, 3000 nM.
Regarding `C[C@@H]1CN(c2ccc(Nc3nc(N)c(C(=O)c4c(F)cccc4F)s3)cc2)C[C@H](C)N1` [J(5), {4-Amino-2-[4-(cis-3,5-dimethyl-piperazin-1-yl)-phenylamino]-thiazol-5-yl}-(2,6-difluoro-phenyl)-methanone], the Ki at CDK2/cyclin A was 331 nM; in assay [1], 760 nM; in assay [2] it was 6.3 nM. In addition, the IC50 in the assay with U2-OS was found to be 1000 nM; in the assay on Saos-2 it was 900 nM; with HCT116 it was 700 nM. Moreover, the IC90 in the assay on U2-OS worked out at 1800 nM; in the assay on Saos-2, 1500 nM; in the assay on HCT116 it was 1600 nM.
